According to patent EP0164699A2, “1,2-Beta-methylene-4-androstene and 4,6-androstadiene-3,17-dione” (SCHERING AKTIENGESELLSCHAFT, priority 1984, dated 1985):

System: Aromatase
Assay: Aromatase inhibition: reduction of PMSG-stimulated estradiol secretion in rats (serum estradiol by radioimmunoassay)
Assay type: in vivo, Ratten
Settings: serum of 20-day-old female rats pretreated 7 times with 100 I.U. PMSG s.c.; test substance injected 1 h before and 8 h after last PMSG; killed 24 h after last PMSG; comparison with substance A
Source text: Die durch PMSG (Pregnant Mare's Serum Gonadotropin) vermehrte Sekretion von Östradiol kann durch Applikation von Aromatasehemmern vermindert werden.
Versuch und Auswertung wurden wie folgt durchgeführt: • 20 Tage alte weibliche Ratten wurden alle 2 Tage insgesamt 7 mal mit 100 I.U. PMSG subcutan vorbehandelt. Eine Stunde vor und 8 Stunden nach der letzten PMSG-Applikation (d12) erhielten die Tiere die Testsubstanz durch Injektion. 24 Stunden nach der letzten PMSG-Applikation wurden die Tiere getötet. Im Serum wurde dann Östradiol radioimmunologisch bestimmt. In der folgenden Tabelle wird die Östradiolkonzentration in nMol/1 und die Standardabweichung angegeben. [formula]

SMILES: C[C@]12CC[C@H]3[C@@H](CCC4=CC(=O)[C@H]5CC5[C@@]43C)[C@@H]1CCC2=O (some centres unmarked) [B, 1,2ß-Methylen-4-androsten-3,17-dion]
- Östradiolkonzentration: einen stärkeren Abfall der Östradiolkonzentration bewirken als die bekannte Substanz A

SMILES: C[C@]12CC[C@H]3[C@@H](C=CC4=CC(=O)[C@H]5CC5[C@@]43C)[C@@H]1CCC2=O (some centres unmarked) [C, 1,2ß-Methylen-androsta-4,6-dien-3,17-dion]
- Östradiolkonzentration: einen stärkeren Abfall der Östradiolkonzentration bewirken als die bekannte Substanz A
